Data: ChEMBL document CHEMBL1137755, “[35S]GTP gamma S binding studies of amphiphilic drugs-activated Gi proteins: a caveat” (Bioorg Med Chem Lett, 2009)
Blank lines part the entries; values can stand above or below the molecule they belong to. The source made the active and inactive calls. The calls are words filed in the database; no cut-off is given here.

Key:
[1] = target: Guanine nucleotide-binding protein G(i) subunit alpha-1 (Homo sapiens) (UniProt P63096); assay: Activation of human Gi protein alpha1 subunit expressed in Escherichia coli assessed as protein bound [35S]GTPgammaS levels at 5 uM by scintillation spectroscopy; assay type: functional
Chain of Guanine nucleotide-binding protein G(i) subunit alpha-1 (Homo sapiens) (P63096 whole entry): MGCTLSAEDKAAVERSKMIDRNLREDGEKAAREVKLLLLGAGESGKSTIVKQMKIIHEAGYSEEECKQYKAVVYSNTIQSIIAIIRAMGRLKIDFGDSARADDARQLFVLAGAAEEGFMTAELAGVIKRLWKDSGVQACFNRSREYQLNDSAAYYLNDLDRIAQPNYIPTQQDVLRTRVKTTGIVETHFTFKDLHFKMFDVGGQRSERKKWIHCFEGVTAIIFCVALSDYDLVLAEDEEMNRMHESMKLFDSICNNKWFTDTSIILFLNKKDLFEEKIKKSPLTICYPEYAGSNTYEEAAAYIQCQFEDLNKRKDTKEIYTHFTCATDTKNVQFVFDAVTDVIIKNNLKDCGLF

[2] = target: Guanine nucleotide-binding protein G(i) subunit alpha-1 (Homo sapiens) (UniProt P63096); assay: Activation of human Gi protein alpha1 subunit expressed in Escherichia coli assessed as protein bound [35S]GTPgammaS levels at 10 uM by scintillation spectroscopy relative to basal; assay type: functional
[3] = target: Guanine nucleotide-binding protein G(i) subunit alpha-1 (Homo sapiens) (UniProt P63096); assay: Activation of human Gi protein alpha1 subunit expressed in Escherichia coli assessed as protein bound [35S]GTPgammaS levels at 10 uM by scintillation spectroscopy; assay type: functional
[4] = target: Guanine nucleotide-binding protein G(i) subunit alpha-1 (Homo sapiens) (UniProt P63096); assay: Activation of human Gi protein alpha1 subunit expressed in Escherichia coli assessed as protein bound [35S]GTPgammaS levels at 1 uM by scintillation spectroscopy; assay type: functional
[5] = target: Guanine nucleotide-binding protein G(i) subunit alpha-1 (Homo sapiens) (UniProt P63096); assay: Activation of human Gi protein alpha1 subunit expressed in Escherichia coli assessed as protein bound [35S]GTPgammaS levels at 50 uM by scintillation spectroscopy; assay type: functional
[6] = Critical micelle concentration by drop-shape analysis; assay type: physicochemical
[7] = target: Guanine nucleotide-binding protein G(i) subunit alpha-1 (Homo sapiens) (UniProt P63096); assay: Activation of human Gi protein alpha1 subunit expressed in Escherichia coli assessed as protein bound [35S]GTPgammaS levels by scintillation spectroscopy; assay type: functional
[8] = target: Guanine nucleotide-binding protein G(o) subunit alpha (Homo sapiens) (UniProt P09471); assay: Activation of human Go protein alpha subunit expressed in Escherichia coli assessed as protein bound [35S]GTPgammaS levels at 10 uM by scintillation spectroscopy; assay type: functional
Chain of Guanine nucleotide-binding protein G(o) subunit alpha (Homo sapiens) (P09471 2-354 limits assumed): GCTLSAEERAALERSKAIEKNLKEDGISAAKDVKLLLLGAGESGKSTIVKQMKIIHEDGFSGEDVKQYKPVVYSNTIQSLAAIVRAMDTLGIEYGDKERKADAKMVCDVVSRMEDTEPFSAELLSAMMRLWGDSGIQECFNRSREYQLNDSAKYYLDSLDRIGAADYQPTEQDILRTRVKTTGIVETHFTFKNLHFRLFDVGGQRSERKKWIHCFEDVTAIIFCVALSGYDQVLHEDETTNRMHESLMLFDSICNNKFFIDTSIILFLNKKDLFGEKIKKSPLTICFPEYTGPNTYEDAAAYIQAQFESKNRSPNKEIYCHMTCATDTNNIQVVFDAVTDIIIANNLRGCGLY

[9] = target: Guanine nucleotide-binding protein G(o) subunit alpha (Homo sapiens) (UniProt P09471); assay: Activation of human Go protein alpha subunit expressed in Escherichia coli assessed as protein bound [35S]GTPgammaS levels at 5 uM by scintillation spectroscopy; assay type: functional
[10] = target: Guanine nucleotide-binding protein G(o) subunit alpha (Homo sapiens) (UniProt P09471); assay: Activation of human Go protein alpha subunit expressed in Escherichia coli assessed as protein bound [35S]GTPgammaS levels at 50 uM by scintillation spectroscopy; assay type: functional
[11] = target: Guanine nucleotide-binding protein G(o) subunit alpha (Homo sapiens) (UniProt P09471); assay: Activation of human Go protein alpha subunit expressed in Escherichia coli assessed as protein bound [35S]GTPgammaS levels at 100 uM by scintillation spectroscopy; assay type: functional
[12] = target: Guanine nucleotide-binding protein G(o) subunit alpha (Homo sapiens) (UniProt P09471); assay: Activation of human Go protein alpha subunit expressed in Escherichia coli assessed as protein bound [35S]GTPgammaS levels at 10 uM by scintillation spectroscopy relative to basal; assay type: functional
[13] = target: Guanine nucleotide-binding protein G(i) subunit alpha-1 (Homo sapiens) (UniProt P63096); assay: Activation of human Gi protein alpha1 subunit expressed in Escherichia coli assessed as protein bound [35S]GTPgammaS levels at 100 uM by scintillation spectroscopy; assay type: functional
[14] = target: Guanine nucleotide-binding protein G(o) subunit alpha (Homo sapiens) (UniProt P09471); assay: Activation of human Go protein alpha subunit expressed in Escherichia coli assessed as protein bound [35S]GTPgammaS levels at 1 uM by scintillation spectroscopy; assay type: functional

Activity [1]: 78.7 fmol | Activity [2]: 2550% | Activity [3]: 234 fmol | Activity [4]: 11.6 fmol | Activity [5]: 2300 fmol
Compound: CCCCCCCCCCCCCCCN1CCC(C2CCN(CCN)CC2)CC1

Activity [1]: 33.3 fmol | Activity [2]: 2990% | Activity [3]: 275 fmol | Activity [4]: 19.9 fmol | CMC [6]: 1.41 ×10⁻⁴ M | Activity [5]: 781 fmol
Compound: CCCCCCCCCCCCCCCN1CCC(C2CCN(CCNC(=O)[C@@H](N)CCCCN)CC2)CC1

Activity [7]: inactive
Compound: c1ccc(CCCCNC2CCNCC2)cc1

Activity [7]: inactive
Compound: CCOCCOCCOCCOCCOCCNC1CCNCC1

Activity [1]: 103 fmol | Activity [2]: 1660% | Activity [3]: 157 fmol | Activity [4]: 23.7 fmol | Activity [5]: 185 fmol
Compound: CCCCCCCCCCCCCCCN1CCC(NC(=O)[C@@H](N)CCCCN)CC1

Activity [7]: inactive
Compound: CCCCCCCCCNN1CCNCC1

Compound: CCOCCOCCOCCOCCNC1CCNCC1
Activity [7]: inactive

Activity [7]: Active
Compound: CCCCCCCCCCCCCCCNC1CCN(C(=O)[C@@H](N)CCCCN)CC1

Activity [7]: Active | CMC [6]: 1 ×10⁻⁴ M
Compound: CCCCCCCCCCCCCCCNC1CCN(CCN)CC1

Activity [1]: 49.5 fmol | Activity [8]: 636 fmol | Activity [9]: 363 fmol | Activity [10]: 1400 fmol | Activity [11]: 1420 fmol | Activity [2]: 693% | Activity [3]: 70.6 fmol | Activity [4]: 15.4 fmol | Activity [12]: 668% | Activity [13]: 195 fmol | CMC [6]: 1.44 ×10⁻⁴ M | Activity [5]: 196 fmol | Activity [14]: 102 fmol
Compound: CCCCCCCCCCCCCCCNC1CCNCC1

Activity [7]: inactive
Compound: CCOCCOCCOCCOCCOCCN1CCC(C2CCNCC2)CC1

Compound: CCCCCCCCCNC1CCNCC1
Activity [7]: inactive

Activity [7]: Active
Compound: CCCCCCCCCCCCCCCN1CCC(C2CCN(C(=O)[C@@H](N)CCCCN)CC2)CC1

Activity [1]: 76.2 fmol | Activity [2]: 877% | Activity [3]: 87 fmol | Activity [4]: 30.3 fmol | Activity [5]: 103 fmol
Compound: CCCCCCCCCCCCCCC(=O)N1CCC(C2CCN(CCN)CC2)CC1

Activity [7]: inactive
Compound: CCOCCOCCOCCNN1CCNCC1

Activity [7]: inactive
Compound: CCOCCOCCOCCN1CCC(C2CCNCC2)CC1

Compound: CCCCCNC1CCNCC1
Activity [7]: inactive

Activity [7]: inactive
Compound: CCCCCNN1CCNCC1

Compound: CCCCCCCNC1CCNCC1
Activity [7]: inactive

Activity [7]: inactive
Compound: CCCCCNCC1CCNCC1

Activity [1]: 69.1 fmol | Activity [2]: 1170% | Activity [3]: 113 fmol | Activity [4]: 8.9 fmol | Activity [5]: 980 fmol
Compound: CCCCCCCCCCCCCCCNCC1CCN(CCNC=O)CC1

Activity [7]: inactive
Compound: c1ccc(CCCCNCC2CCNCC2)cc1

Activity [7]: inactive
Compound: c1ccc(CCCCN2CCC(C3CCNCC3)CC2)cc1

Activity [7]: inactive
Compound: CCOCCOCCOCCNCC1CCNCC1

Activity [7]: Active
Compound: CCCCCCCCCCCCCCCNC1CCN(CCNC(=O)[C@@H](N)CCCCN)CC1

Activity [7]: inactive
Compound: CCCCCN1CCC(C2CCNCC2)CC1

Compound: CCOCCOCCOCCNC1CCNCC1
Activity [7]: inactive

Activity [7]: inactive
Compound: CCCCCCCNN1CCNCC1

Activity [7]: inactive
Compound: CCCCCCCN1CCC(C2CCNCC2)CC1

Activity [7]: inactive
Compound: c1ccc(CCCCNN2CCNCC2)cc1

Activity [7]: inactive
Compound: CCOCCOCCOCCOCCN1CCC(C2CCNCC2)CC1

Activity [7]: inactive
Compound: CCCCCCCCCN1CCC(C2CCNCC2)CC1

Activity [7]: Active
Compound: CCCCCCCCCCCCCCC(=O)N1CCC(C2CCN(C(=O)[C@@H](N)CCCCN)CC2)CC1
